Measurements as given in PubChem BioAssay AID2060904 (Molecular Pharmacology Branch, DTP, NCI, 2025).
Blank lines part the entries; values can stand above or below the compound they belong to.

Test system: 349418-098-R-PDC complex spheroid viability
Experiment: Anticancer human tumor 349418-098-R-PDC patient-derived lung adenocarcinoma cell line growth inhibition [RAS]
Details: for IC50: curve of first compound; for viability, T/C: stronger effect = lower value
How it was run: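 Multi-cell-type spheroids: tumor cells plus HUVEC endothelial cells and mesenchymal stem cells. RAS-pathway inhibitors were combined with targeted agents, each dosed in half-log steps down from clinical Cmax, or from 10 microM when Cmax was unknown.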

[1] = second compound 0.0316 µM, first compound 0.0316 µM
[2] = second compound 0.0316 µM, first compound 0.1 µM
[3] = second compound 0.1 µM, first compound 0.0316 µM
[4] = second compound 0.1 µM, first compound 0.1 µM
[5] = second compound 0.316 µM, first compound 0.0316 µM
[6] = second compound 0.316 µM, first compound 0.1 µM
[7] = second compound 1 µM, first compound 0.0316 µM
[8] = second compound 1 µM, first compound 0.1 µM
[9] = second compound 3.16 µM, first compound 0.0316 µM
[10] = second compound 3.16 µM, first compound 0.1 µM
[11] = second compound 10 µM, first compound 0.0316 µM
[12] = second compound 10 µM, first compound 0.1 µM
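Also: spheroids exposed to compound for seven days before viability readout.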

IC50 (second compound 0.000949 µM): > 10000 nM | IC50 (second compound 0.003 µM): > 10000 nM | IC50 (second compound 0.00949 µM): > 10000 nM | IC50 (second compound 0.03 µM): > 10000 nM | IC50 (second compound 0.0949 µM): > 10000 nM | IC50 (second compound 0.3 µM): > 10000 nM
SMILES: NC1c2ccccc2OC12CCN(c1cnc3c(N4CCCc5ncccc54)n[nH]c3n1)CC2 (stereo unspecified) + CCn1c(-c2cccnc2C(C)OC)c2c3cc(ccc31)N1CCOC(CC(NC(=O)C(C(C)C)N(C)C(=O)C3(F)CCN(C(=O)C#CC(C)(C)N(C)C)CC3)C(=O)N3CCCC(N3)C(=O)OCC(C)(C)C2)C1
viability, T/C (second compound 0.000949 µM, first compound 0.0316 µM): 78.4% | viability, T/C (second compound 0.000949 µM, first compound 0.1 µM): 93.4% | viability, T/C (second compound 0.000949 µM, first compound 0.316 µM): 90.7% | viability, T/C (second compound 0.000949 µM, first compound 1 µM): 97% | viability, T/C (second compound 0.000949 µM, first compound 3.16 µM): 108% | viability, T/C (second compound 0.000949 µM, first compound 10 µM): 75.5% | viability, T/C (second compound 0.003 µM, first compound 0.0316 µM): 97.2% | viability, T/C (second compound 0.003 µM, first compound 0.1 µM): 95.3% | viability, T/C (second compound 0.003 µM, first compound 0.316 µM): 91% | viability, T/C (second compound 0.003 µM, first compound 1 µM): 99.4% | viability, T/C (second compound 0.003 µM, first compound 3.16 µM): 98.5% | viability, T/C (second compound 0.003 µM, first compound 10 µM): 71.7% | viability, T/C (second compound 0.00949 µM, first compound 0.0316 µM): 108% | viability, T/C (second compound 0.00949 µM, first compound 0.1 µM): 95.4% | viability, T/C (second compound 0.00949 µM, first compound 0.316 µM): 90.3% | viability, T/C (second compound 0.00949 µM, first compound 1 µM): 116% | viability, T/C (second compound 0.00949 µM, first compound 3.16 µM): 93.6% | viability, T/C (second compound 0.00949 µM, first compound 10 µM): 59.8% | viability, T/C (second compound 0.03 µM, first compound 0.0316 µM): 93.9% | viability, T/C (second compound 0.03 µM, first compound 0.1 µM): 102% | viability, T/C (second compound 0.03 µM, first compound 0.316 µM): 115% | viability, T/C (second compound 0.03 µM, first compound 1 µM): 96.8% | viability, T/C (second compound 0.03 µM, first compound 3.16 µM): 98.1% | viability, T/C (second compound 0.03 µM, first compound 10 µM): 85% | viability, T/C (second compound 0.0949 µM, first compound 0.0316 µM): 105% | viability, T/C (second compound 0.0949 µM, first compound 0.1 µM): 103% | viability, T/C (second compound 0.0949 µM, first compound 0.316 µM): 116% | viability, T/C (second compound 0.0949 µM, first compound 1 µM): 91.3% | viability, T/C (second compound 0.0949 µM, first compound 3.16 µM): 89.7% | viability, T/C (second compound 0.0949 µM, first compound 10 µM): 59.3% | viability, T/C (second compound 0.3 µM, first compound 0.0316 µM): 84.8% | viability, T/C (second compound 0.3 µM, first compound 0.1 µM): 68.8% | viability, T/C (second compound 0.3 µM, first compound 0.316 µM): 102% | viability, T/C (second compound 0.3 µM, first compound 1 µM): 90.8% | viability, T/C (second compound 0.3 µM, first compound 3.16 µM): 85.2% | viability, T/C (second compound 0.3 µM, first compound 10 µM): 61.4%

IC50 (second compound 0.0316 µM): 5.82 nM | IC50 (second compound 0.1 µM): 3.71 nM | IC50 (second compound 0.316 µM): 5.3 nM | IC50 (second compound 1 µM): 6.59 nM | IC50 (second compound 3.16 µM): 3.7 nM | IC50 (second compound 10 µM): 1.58 nM
SMILES: CC(C)n1nc(-c2ccc3oc(N)nc3c2)c2c(N)ncnc21 + C#Cc1c(F)ccc2cc(O)cc(-c3ncc4c(N5CC6CCC(C5)N6)nc(OCC56CCCN5CC(F)C6)nc4c3F)c12
viability, T/C (second compound 0.0316 µM, first compound 0.000316 µM): 98.7% | viability, T/C (second compound 0.0316 µM, first compound 0.001 µM): 132% | viability, T/C (second compound 0.0316 µM, first compound 0.00316 µM): 90.5% | viability, T/C (second compound 0.0316 µM, first compound 0.01 µM): 15.3% | viability, T/C [1]: 10.9% | viability, T/C [2]: 10.4% | viability, T/C (second compound 0.1 µM, first compound 0.000316 µM): 67.8% | viability, T/C (second compound 0.1 µM, first compound 0.001 µM): 123% | viability, T/C (second compound 0.1 µM, first compound 0.00316 µM): 56% | viability, T/C (second compound 0.1 µM, first compound 0.01 µM): 19.4% | viability, T/C [3]: 10.4% | viability, T/C [4]: 9% | viability, T/C (second compound 0.316 µM, first compound 0.000316 µM): 87.8% | viability, T/C (second compound 0.316 µM, first compound 0.001 µM): 114% | viability, T/C (second compound 0.316 µM, first compound 0.00316 µM): 73.9% | viability, T/C (second compound 0.316 µM, first compound 0.01 µM): 20.5% | viability, T/C [5]: 8.95% | viability, T/C [6]: 8.66% | viability, T/C (second compound 1 µM, first compound 0.000316 µM): 74.8% | viability, T/C (second compound 1 µM, first compound 0.001 µM): 111% | viability, T/C (second compound 1 µM, first compound 0.00316 µM): 85.9% | viability, T/C (second compound 1 µM, first compound 0.01 µM): 29.2% | viability, T/C [7]: 8.08% | viability, T/C [8]: 9.16% | viability, T/C (second compound 3.16 µM, first compound 0.000316 µM): 109% | viability, T/C (second compound 3.16 µM, first compound 0.001 µM): 104% | viability, T/C (second compound 3.16 µM, first compound 0.00316 µM): 48.4% | viability, T/C (second compound 3.16 µM, first compound 0.01 µM): 30.2% | viability, T/C [9]: 9.48% | viability, T/C [10]: 8.95% | viability, T/C (second compound 10 µM, first compound 0.000316 µM): 56.1% | viability, T/C (second compound 10 µM, first compound 0.001 µM): 72% | viability, T/C (second compound 10 µM, first compound 0.00316 µM): 28.5% | viability, T/C (second compound 10 µM, first compound 0.01 µM): 10.7% | viability, T/C [11]: 6.47% | viability, T/C [12]: 4.1%

IC50 (second compound 0.0316 µM): 90 nM | IC50 (second compound 0.1 µM): 91.7 nM | IC50 (second compound 0.316 µM): 70 nM | IC50 (second compound 1 µM): 44.2 nM | IC50 (second compound 3.16 µM): 71 nM | IC50 (second compound 10 µM): < 31.6 nM
SMILES: CC(Nc1ccc2c(c1)OCCn1cc(N3C(=O)OCC3C(F)F)nc1-2)C(N)=O (stereo unspecified) + C#Cc1c(F)ccc2cc(O)cc(-c3ncc4c(N5CC6CCC(C5)N6)nc(OCC56CCCN5CC(F)C6)nc4c3F)c12
viability, T/C [1]: 78.3% | viability, T/C [2]: 43.2% | viability, T/C (second compound 0.0316 µM, first compound 0.316 µM): 37.1% | viability, T/C (second compound 0.0316 µM, first compound 1 µM): 11.6% | viability, T/C (second compound 0.0316 µM, first compound 3.16 µM): 11.7% | viability, T/C (second compound 0.0316 µM, first compound 10 µM): 11.8% | viability, T/C [3]: 80.4% | viability, T/C [4]: 39.4% | viability, T/C (second compound 0.1 µM, first compound 0.316 µM): 39.1% | viability, T/C (second compound 0.1 µM, first compound 1 µM): 19.9% | viability, T/C (second compound 0.1 µM, first compound 3.16 µM): 12.7% | viability, T/C (second compound 0.1 µM, first compound 10 µM): 11.2% | viability, T/C [5]: 71% | viability, T/C [6]: 39.7% | viability, T/C (second compound 0.316 µM, first compound 0.316 µM): 26.8% | viability, T/C (second compound 0.316 µM, first compound 1 µM): 16.9% | viability, T/C (second compound 0.316 µM, first compound 3.16 µM): 15.3% | viability, T/C (second compound 0.316 µM, first compound 10 µM): 13.7% | viability, T/C [7]: 51.8% | viability, T/C [8]: 45.9% | viability, T/C (second compound 1 µM, first compound 0.316 µM): 25.5% | viability, T/C (second compound 1 µM, first compound 1 µM): 12.4% | viability, T/C (second compound 1 µM, first compound 3.16 µM): 16.2% | viability, T/C (second compound 1 µM, first compound 10 µM): 10.6% | viability, T/C [9]: 63.5% | viability, T/C [10]: 42.7% | viability, T/C (second compound 3.16 µM, first compound 0.316 µM): 30.5% | viability, T/C (second compound 3.16 µM, first compound 1 µM): 12.9% | viability, T/C (second compound 3.16 µM, first compound 3.16 µM): 12.8% | viability, T/C (second compound 3.16 µM, first compound 10 µM): 13.5% | viability, T/C [11]: 35.9% | viability, T/C [12]: 28.3% | viability, T/C (second compound 10 µM, first compound 0.316 µM): 9.51% | viability, T/C (second compound 10 µM, first compound 1 µM): 4.69% | viability, T/C (second compound 10 µM, first compound 3.16 µM): 5.91% | viability, T/C (second compound 10 µM, first compound 10 µM): 2.82%
